Data from ChEMBL document CHEMBL5725965, “Isoxazole derivatives as FXR agonists and methods of use thereof” (2018).

Molecular target: T1, Bile acid receptor (Homo sapiens, UniProt Q96RI1)
T1 sequence (Q96RI1 whole entry): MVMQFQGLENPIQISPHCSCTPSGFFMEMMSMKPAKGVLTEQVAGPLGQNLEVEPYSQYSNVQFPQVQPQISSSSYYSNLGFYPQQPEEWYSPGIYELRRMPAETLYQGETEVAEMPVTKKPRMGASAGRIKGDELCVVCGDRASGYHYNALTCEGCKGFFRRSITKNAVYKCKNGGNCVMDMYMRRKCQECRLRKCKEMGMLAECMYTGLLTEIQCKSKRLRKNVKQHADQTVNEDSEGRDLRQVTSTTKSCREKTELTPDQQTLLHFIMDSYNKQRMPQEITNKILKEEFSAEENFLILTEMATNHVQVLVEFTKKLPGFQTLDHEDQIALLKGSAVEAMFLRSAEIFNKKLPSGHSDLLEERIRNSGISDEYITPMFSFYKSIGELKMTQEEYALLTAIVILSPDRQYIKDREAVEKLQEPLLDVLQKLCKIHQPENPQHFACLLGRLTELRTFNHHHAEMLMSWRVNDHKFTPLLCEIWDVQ
Assay: FXR Reporter Assay kit purchased from Indigo Bioscience (Catalogue number: IB00601) to determine the potency and efficacy of compound developed by Enanta that can induce FXR activation. The principle application of this reporter assay system is to quantify functional activity of human FXR. The assay utilizes non-human mammalian cells, CHO (Chinese hamster ovary) cells engineered to express human NR1H4 protein (referred to as FXR). Reporter cells also incorporate the cDNA encoding beetle luciferase which catalyzes the substrates and yields photon emission. Luminescence intensity of the reaction is quantified using a plate-reading luminometer, Envision. Reporter Cells include the luciferase reporter gene functionally linked to an FXR responsive promoter. Thus, quantifying changes in luciferase expression in the treated reporter cells provides a sensitive surrogate measure of the changes in FXR activity. […] The assay is according to the manufacturer's instructions. In brief, the assay was performed in white, 96 well plates using final volume of 100 μl containing cells with different doses of compounds. Retrieve Reporter Cells from −80° C. storage. Perform a rapid thaw of the frozen cells by transferring a 10 ml volume of 37° C. cell recovery medium into the tube of frozen cells. Recap the tube of Reporter Cells and immediately place it in a 37° C. water bath for 5-10 minutes. […]
Assay type: cell-based

CN(C)S(=O)(=O)NC(=O)c1ccc2nc(N3C4CC[C@H]3C[C@H](OCc3c(-c5c(Cl)cccc5Cl)noc3C3CC3)C4)sc2c1 gave an EC50 of under 100 nM.
